Measured values: patent US10828304B2, “Compositions and methods for white to beige adipogenesis” (University of South Florida, priority 2017, dated 2020)

Key:
[1] = system: PGC1α; assay: PGC1α expression in 3T3-L1 cells; format: cell-based; details: 100 nM, 3 to 5 days during terminal differentiation, vs adipocyte control
[2] = system: UCP1; assay: UCP1 expression in 3T3-L1 cells; format: cell-based; details: 100 nM, 3 to 5 days during terminal differentiation, vs adipocyte control
Procedure: (§1) The effect of the Clk1 inhibitor DC677 or DC761 on 3T3-L1 cells was examined. 3T3-L1 cells were incubated with 50 nM TG003 (an inhibitor of Clk1), 100 nM DC677, or 100 nM DC761 for 3 to 5 days. Adipocytes were used as a control. UCP1 expression was determined (results are shown in FIG. 1A and FIG. 2A; RQ is reference quotient). Oil Red O (obtained from Sigma-Aldrich, St. Louis, Mo.) was used to stain triglycerides and lipids, and the levels of Oil Red O were determined by measuring absorbance at 520 nm (results are shown in FIG. 1C and FIG. 2C). MitoTracker™ Green (Thermo Fischer Scientific, Waltham, Mass.) was used to stain mitochondria, and levels were determined by measuring absorbance at 495 nm (results are shown in FIG. 1D and FIG. 2D).

[3] = system: 3T3-L1 cells; assay: MitoTracker Green staining of mitochondria in 3T3-L1 cells; format: cell-based; details: dose of 100 nM
Procedure: as §1
The effect of the Clk1 inhibitor DC677 on 3T3-L1 cells was examined with fluorescence microscopy. 3T3-L1 cells were cultured in a 12-well plate and differentiated by […] (MDI). The cells were then incubated with insulin, TG003, or DC677. On day 8, the cells were stained with MitoTracker™ Green (Thermo Fischer Scientific, Waltham, Mass.). In FIG. 3, the cell treatment is as follows: (1) insulin as a control; (2) 50 nm TG003 added on day 2; (3) 50 nm TG003 added on day 4; (4) 100 nm DC677 added on day 2; (5) 100 nm DC677 added on day 4; and (6) 100 nm DC677 added on day 6.

[4] = system: 3T3-L1 cells; assay: Oil Red O staining of triglycerides and lipids in 3T3-L1 cells; format: cell-based; details: 100 nM, 3 to 5 days during terminal differentiation
Procedure: as §1

[5] = system: 3T3-L1 cells; assay: Differentiation of 3T3-L1 cells into beige cells; format: cell-based; details: for differentiation of 3T3-L1 cells into beige cells: 100 nM, 3 to 5 days
Procedure: as §1

[6] = system: Clk1; details: stated as 'may be about'; no test described; cited from earlier work

Structure (SMILES) | PGC1α expression [1] | UCP1 expression [2] | mitochondrial biogenesis, effectiveness compared to TG003 at 50 nM [3] | lipid storage and lipid droplet size [4] | performance compared with TG003 ([5]; 100 nM DC677 vs 50 nM TG003) | differentiation of 3T3-L1 cells into beige cells [5] | IC50 [6] [nM]
O=C1Nc2ccc(Br)cc2/C1=C\c1nc2ccccc2c(=O)n1Cc1ccccc1 [DC677, 3-benzyl-2-[(5-bromo-2-oxo-1,2-dihydro-3H-indol-3-ylidene)methyl]-4(3H)-quinazolinone] | increased | increased | highly effective | stored fewer lipids in smaller lipid droplets | performs equally well to TG003 | can differentiate into “beige” cells | 
CC(=O)Nc1cccc(N2C(=O)c3cccc4cc([N+](=O)[O-])cc(c34)C2=O)c1 [DC761, N-[3-(5-nitro-1,3-dioxo-1H-benzo[de]isoquinolin-2(3H)-yl)phenyl]acetamide] | increased | increased |  | stored fewer lipids in smaller lipid droplets |  | can differentiate into “beige” cells | 
